Target: T1, TRAP1 enzyme (Homo sapiens, UniProt Q12931)
T1 sequence (Q12931 60-704): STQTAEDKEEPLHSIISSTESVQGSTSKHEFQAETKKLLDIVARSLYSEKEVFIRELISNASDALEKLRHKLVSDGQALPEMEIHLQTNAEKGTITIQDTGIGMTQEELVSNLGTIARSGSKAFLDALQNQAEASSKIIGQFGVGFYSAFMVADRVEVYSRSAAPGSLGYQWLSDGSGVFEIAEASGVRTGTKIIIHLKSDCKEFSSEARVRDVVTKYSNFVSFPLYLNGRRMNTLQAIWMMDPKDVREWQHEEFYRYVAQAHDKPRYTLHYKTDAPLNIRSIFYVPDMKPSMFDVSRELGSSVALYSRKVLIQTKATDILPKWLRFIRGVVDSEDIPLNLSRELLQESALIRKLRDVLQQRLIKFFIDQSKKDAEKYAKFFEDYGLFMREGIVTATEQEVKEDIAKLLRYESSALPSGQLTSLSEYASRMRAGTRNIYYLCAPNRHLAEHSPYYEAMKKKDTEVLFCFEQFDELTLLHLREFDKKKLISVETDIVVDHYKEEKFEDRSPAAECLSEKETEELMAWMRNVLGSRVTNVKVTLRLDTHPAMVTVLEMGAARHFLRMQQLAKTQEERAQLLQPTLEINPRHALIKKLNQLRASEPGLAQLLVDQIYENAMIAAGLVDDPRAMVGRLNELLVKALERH
Assay: Malachite green phosphate assay of TRAP1 ATPase activity
Format: biochemical
Conditions: for EC50: TRAP1 ATPase activation, 150 nM Trap1, 20 μM ATP, geometric mean, read-out: Malachite Green Fluor DRC: GeoMean EC50; for Emax: read-out: Malachite Green Fluor DRC: Mean Emax
Method: The Potency of test compounds to modulate the ATPase activity of TRAP1 enzyme was evaluated using malachite green phosphatase assay. The assay is based on quantification of the green complex formed between Malachite Green, molybdate and inorganic phosphate generated in the phosphatase reaction. Assays were performed using a Malachite Green assay kit. All the assays were carried out in a 96-well transparent plate. The buffer used was 50 mM HEPES (pH 7.5), 20 mM KCl, 4 mM MgCl2 and 0.05% BSA. 150 nM Trap1 enzyme was incubated with various concentrations of the test compound (0.78 μM-100 μM) at 37° C. for 30 mins. 20 μM ATP was added to each well (except blank wells) to start the reaction and the plate was then incubated at 37° C. for 180 mins. 10 μl of the reaction volume of each sample was then transferred to a white 384-well proxiplate in quadruplets. 2.5 μl of Malachite Green reagent was added to all the wells and the plate was equilibrated for 15 mins. The reaction was stopped by adding 12% H2SO4 and the plate was read for fluorescence at 620 nm (λex=573 nm). The amount of phosphate released was estimated from a phosphate standard curve generated at the same experimental conditions. Emax (Maximal percent activation) and EC50 (concentration of test compound for half maximal activation) were estimated by fitting the dose response data to a sigmoidal curve fitting equation using Graphpad Prism software V.7.0.

| EC50 | Emax | SMILES |
| --- | --- | --- |
| < 10 µM | 160 to 199% | COc1ccc(NC(=O)c2ncc(-c3ccccc3)o2)cc1S(=O)(=O)Nc1c(C)cccc1C [Compound 423] |
| < 10 µM | 123 to 159% | COc1ccc(NC(=O)c2nnc(-c3ccccc3)o2)cc1S(=O)(=O)Nc1ccc(Cl)cc1 [Compound 424] |
| < 10 µM | 123 to 159% | COc1ccc(NC(=O)c2ncc(-c3ccccc3)o2)cc1S(=O)(=O)Nc1c(Cl)cccc1Cl [Compound 451] |
| 10 to 20 µM | 160 to 199% | COc1ccc(NC(=O)c2csc(-c3ccccc3)n2)cc1S(=O)(=O)Nc1ccc(Cl)cc1 [Compound 487] |
| 10 to 20 µM | 200 to 300% | COc1ccc(NC(=O)c2oc(-c3ccccc3)nc2C)cc1S(=O)(=O)Nc1ccc(Cl)cc1 [Compound 488] |
| 20 to 100 µM | 160 to 199% | COc1ccc(NC(=O)c2ccc(-c3ccccc3)o2)cc1S(=O)(=O)Nc1ccc(Cl)cc1 [Compound 499] |
| 10 to 20 µM | 200 to 300% | COc1ccc(NC(=O)c2nnc(-c3ccccc3)s2)cc1S(=O)(=O)Nc1ccc(Cl)cc1 [Compound 500] |
| < 10 µM | 123 to 159% | C=C(C)c1nc(C(=O)Nc2ccc(OC)c(S(=O)(=O)Nc3ccc(Cl)cc3)c2)oc1-c1ccccc1 [Compound 545] |
| 10 to 20 µM | 160 to 199% | CCOC(=O)Cc1ccc(NC(=O)c2ncc(-c3ccccc3)o2)cc1S(=O)(=O)Nc1ccc(Cl)cc1 [Compound 558] |
| 20 to 100 µM | 123 to 159% | COc1ccc(NC(=O)c2nc(-c3ccccc3)ccc2C)cc1S(=O)(=O)Nc1ccc(Cl)cc1 [Compound 565, N-(3-(N-(4-chlorophenyl)sulfamoyl)-4-methoxyphenyl)-3-methyl-6-phenylpicolinamide] |
| 10 to 20 µM | 160 to 199% | CC(C)c1ccc(NC(=O)c2cnc(-c3ccccc3)o2)cc1S(=O)(=O)Nc1ccc(Cl)cc1 [Compound 576] |
| < 10 µM | 123 to 159% | CC(C)c1ccc(NC(=O)c2ncc(-c3ccccc3)o2)cc1S(=O)(=O)Nc1ccc(Cl)cc1 [Compound 580] |
| 10 to 20 µM | 160 to 199% | COc1ccc(NC(=S)c2ncc(-c3ccccc3)o2)cc1S(=O)(=O)Nc1ccc(Cl)cc1 [Compound 583, N-(3-(N-(4-chlorophenyl)sulfamoyl)-4-methoxyphenyl)-5-phenyloxazole-2-carbothioamide] |
| 20 to 100 µM | 200 to 300% | COc1ccc(NC(=S)c2ncco2)cc1S(=O)(=O)Nc1ccc(Cl)cc1 [Compound 598, N-(3-(N-(4-chlorophenyl)sulfamoyl)-4-methoxyphenyl) oxazole-2-carbothioamide] |
| < 10 µM | 123 to 159% | CCOC(=O)/C=C/c1ccc(NC(=O)c2ncc(-c3ccccc3)o2)cc1S(=O)(=O)Nc1ccc(Cl)cc1 [Compound 634] |

Further lines, the compound ahead of its results:

| SMILES | EC50 | Emax |
| --- | --- | --- |
| COc1ccc(NC(=O)c2cnc(-c3ccc(Cl)cc3)[nH]2)cc1S(=O)(=O)Nc1ccc(Br)cc1 [Compound 415] | < 10 µM | 123 to 159% |
| COc1ccc(-c2ncc(C(=O)Nc3ccc(OC)c(S(=O)(=O)Nc4ccc(Br)cc4)c3)[nH]2)cc1 [Compound 417] | < 10 µM | 123 to 159% |
| Cc1ncoc1C(=O)Nc1cccc(S(=O)(=O)N2CCCc3cc(Cl)ccc32)c1 [Compound 429] | 10 to 20 µM | 200 to 300% |
| COc1ccc(NC(=O)c2cnc(C(F)(F)F)[nH]2)cc1S(=O)(=O)N(CCCCN1CCOCC1)c1ccc(Br)cc1 [Compound 430, N-(3-(N-(4-bromophenyl)-N-(4-morpholinobutyl)sulfamoyl)-4-methoxyphenyl)-2-(trifluoromethyl)-1H-imidazole-5-carboxamide] | 20 to 100 µM | 200 to 300% |
| COc1ccc(NC(=O)c2cnc(C(F)(F)F)[nH]2)cc1S(=O)(=O)N(CCCCCO)c1ccc(Br)cc1 [Compound 431, N-(3-(N-(4-bromophenyl)-N-(5-hydroxypentyl)sulfamoyl)-4-methoxyphenyl)-2-(trifluoromethyl)-1H-imidazole-5-carboxamide] | 20 to 100 µM | > 300% |
| COc1ccc(NC(=O)c2cnc(C(F)(F)F)[nH]2)cc1S(=O)(=O)N(CCCCCN1CCOCC1)c1ccc(Br)cc1 [Compound 433] | 10 to 20 µM | 123 to 159% |
| Cc1cccc(C)c1NS(=O)(=O)c1cc(NC(=O)c2cnc(-c3ccccc3)[nH]2)ccc1F [Compound 436] | < 10 µM | 160 to 199% |
| COc1ccc(NC(=O)c2cnc(C(F)(F)F)[nH]2)cc1S(=O)(=O)N(CCCCN1CCCC1)c1ccc(Br)cc1 [Compound 437] | 20 to 100 µM | 160 to 199% |
| COc1ccc(NC(=O)c2cnc(C(F)(F)F)[nH]2)cc1S(=O)(=O)N(CCCCCN1CCCC1)c1ccc(Br)cc1 [Compound 439] | 20 to 100 µM | 160 to 199% |
| COc1ccc(NC(=O)c2ncc(-c3ccccc3)s2)cc1S(=O)(=O)Nc1c(C)cccc1C [Compound 449] | 10 to 20 µM | 123 to 159% |
| COc1ccc(NC(=O)c2nnc(-c3ccccc3)o2)cc1S(=O)(=O)Nc1c(Cl)cccc1Cl [Compound 469] | < 10 µM | 160 to 199% |
| COc1ccc(NC(=O)c2cnc(-c3ccccc3)o2)cc1S(=O)(=O)Nc1c(C)cccc1C [Compound 470] | < 10 µM | 200 to 300% |
| COc1ccc(NC(=O)c2cnccc2C)cc1S(=O)(=O)Nc1c(C)cccc1C [Compound 471] | 20 to 100 µM | 160 to 199% |
| O=C(Nc1cccc(S(=O)(=O)N2CCOc3cc(Cl)ccc32)c1)c1ncc(-c2ccccc2)o1 [Compound 477] | < 10 µM | 160 to 199% |
| Cc1ncoc1C(=O)Nc1cccc(S(=O)(=O)N2CCOc3cc(Cl)ccc32)c1 [Compound 479] | 10 to 20 µM | 160 to 199% |
| COc1ccc(NC(=O)c2cnccc2C(C)C)cc1S(=O)(=O)Nc1ccc(Br)cc1 [Compound 493] | 20 to 100 µM | 160 to 199% |
| COc1ccc(NC(=O)c2cnccc2C(C)C)cc1S(=O)(=O)Nc1ccc(Cl)cc1 [Compound 496] | 20 to 100 µM | 160 to 199% |
| O=C(Nc1ccc(F)c(S(=O)(=O)Nc2c(F)cc(Cl)cc2F)c1)c1ncc(-c2ccccc2)o1 [Compound 503] | < 10 µM | 123 to 159% |
| Cc1ncoc1C(=O)Nc1cccc(S(=O)(=O)N2CCC(C)(C)c3cc(Cl)ccc32)c1 [Compound 517] | 10 to 20 µM | 160 to 199% |
| COc1ccc(NC(=O)c2cnc(-c3ccccc3)[nH]2)cc1S(=O)(=O)N(CCOCCOCCOCCN)c1ccc(Br)cc1 [Compound 526, N-(3-(N-(2-(2-(2-(2-aminoethoxy)ethoxy)ethoxy)ethyl)-N-(4-bromophenyl)sulfamoyl)-4-methoxyphenyl)-2-phenyl-1H-imidazole-5-carboxamide] | 20 to 100 µM | > 300% |
| CC1(C)CCN(S(=O)(=O)c2cccc(NC(=O)c3cnc(-c4ccccc4)[nH]3)c2)c2ccc(Cl)cc21 [Compound 534] | 20 to 100 µM | 200 to 300% |
| COc1ccc(NC(=O)c2nc(Br)ccc2C)cc1S(=O)(=O)Nc1ccc(Cl)cc1 [Compound 537] | 10 to 20 µM | 200 to 300% |
| Cc1ccc(NS(=O)(=O)c2cc(NC(=O)c3ncc(-c4ccccc4)o3)ccc2CC(=O)O)cc1 [Compound 541] | 20 to 100 µM | 200 to 300% |
| COc1ccc(NC(=O)c2cnc[nH]2)cc1S(=O)(=O)N(CCOCCOCCOCCN)c1ccc(Br)cc1 [Compound 546] | 20 to 100 µM | 160 to 199% |
| CCc1ccc(NC(=O)c2ncc(-c3ccccc3)o2)cc1S(=O)(=O)Nc1ccc(Cl)nc1 [Compound 548] | < 10 µM | 123 to 159% |
| Cc1ncoc1C(=O)Nc1cccc(S(=O)(=O)N(c2ccc(Cl)cc2)C(C)C)c1 [Compound 551] | 10 to 20 µM | 160 to 199% |
| CCc1ccc(NC(=O)c2ncn(C)n2)cc1S(=O)(=O)Nc1ccc(Cl)cc1 [Compound 575] | 20 to 100 µM | 160 to 199% |
| C=C(C)c1ncoc1C(=O)Nc1ccc(OC)c(S(=O)(=O)Nc2ccc(Cl)cc2)c1 [Compound 593] | 20 to 100 µM | 200 to 300% |
| CCc1ccc(NC(=O)c2nnc(-c3ccccc3)[nH]2)cc1S(=O)(=O)Nc1ccc(Cl)cc1 [Compound 595] | 10 to 20 µM | 200 to 300% |
| COc1ccc(NC(=O)c2cnc(-c3ccccc3)[nH]2)cc1S(=O)(=O)N(CCOCCOCCN)c1ccc(Br)cc1 [Compound 637] | 20 to 100 µM | > 300% |
